Earlier results as cited in article PMC2777304 (PLoS Pathogens, 2009).
Structures can show the parent of a compound that is named as a salt.

Conditions: mouse, in vivo

CCN(CC)CCCC(C)Nc1c2ccc(Cl)cc2nc2ccc(OC)cc12 (stereo not shown) [quinacrine, Quinacrine dihydrochloride]
Highest nontoxic tolerable dose: 40 mg/kg/day
